Measured values taken from US8852554B2, “Radiolabelled PDE10 ligands” (Janssen Pharmaceutica NV, priority 2009, dated 2014).
Counter-ions that a name gives are not always drawn.

Key:
[1] = molecular target: T1, Rat recombinant PDE10A (rPDE10A) (Rattus norvegicus, UniProt Q9QYJ6); test: rat PDE10A2-cAMP inhibition, in vitro SPA assay; type: biochemical; details: 60 nM cAMP substrate
T1 construct: made in house; host or cells: Sf9 insect cells (baculovirus)
T1 sequence (Q9QYJ6 1-794): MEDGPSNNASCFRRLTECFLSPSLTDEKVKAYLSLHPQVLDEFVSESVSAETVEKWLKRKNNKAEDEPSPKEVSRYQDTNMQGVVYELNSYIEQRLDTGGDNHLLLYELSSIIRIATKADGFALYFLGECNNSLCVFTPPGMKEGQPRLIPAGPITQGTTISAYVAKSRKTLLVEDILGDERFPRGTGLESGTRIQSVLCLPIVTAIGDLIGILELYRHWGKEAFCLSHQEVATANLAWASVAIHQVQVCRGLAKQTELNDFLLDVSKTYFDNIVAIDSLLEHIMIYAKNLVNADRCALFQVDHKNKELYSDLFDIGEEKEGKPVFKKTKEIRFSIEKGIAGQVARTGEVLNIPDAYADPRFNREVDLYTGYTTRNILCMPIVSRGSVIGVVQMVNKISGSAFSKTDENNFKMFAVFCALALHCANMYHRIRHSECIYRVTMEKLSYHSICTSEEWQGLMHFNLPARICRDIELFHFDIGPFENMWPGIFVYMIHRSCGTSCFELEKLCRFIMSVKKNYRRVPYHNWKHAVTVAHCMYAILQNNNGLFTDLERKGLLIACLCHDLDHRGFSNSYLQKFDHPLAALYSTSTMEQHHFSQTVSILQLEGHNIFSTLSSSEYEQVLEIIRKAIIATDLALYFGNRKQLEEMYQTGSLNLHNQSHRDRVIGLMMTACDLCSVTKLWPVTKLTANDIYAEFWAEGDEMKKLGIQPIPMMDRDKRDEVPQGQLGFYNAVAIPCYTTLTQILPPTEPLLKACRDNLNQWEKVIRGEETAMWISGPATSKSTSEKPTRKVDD
Method: Rat recombinant PDE10A (rPDE10A) was expressed in Sf9 cells using a recombinant rPDE10A baculovirus construct. Cells were harvested after 48 h of infection and the rPDE10A protein was purified by metal chelate chromatography on Ni-sepharose 6FF. Tested compounds were dissolved and diluted in 100% DMSO to a concentration 100 fold of the final concentration in the assay. Compound dilutions (0.4 μl) were added in 384 well plates to 20 μl of incubation buffer (50 mM Tris pH 7.8, 8.3 mM MgCl2, 1.7 mM EGTA). 10 μl of rPDE10A enzyme in incubation buffer was added and the reaction was started by addition of 10 μl substrate to a final concentration of 60 nM cAMP and 0.008 μCi 3H-cAMP. The reaction was incubated for 60 minutes at room temperature. […] After sedimentation of the beads during 30 minutes, the radioactivity was measured in a Perkin Elmer Topcount scintillation counter and results were expressed as cpm. For blanc values the enzyme was omitted from the reaction and replaced by incubation buffer. Control values were obtained by addition of a final concentration of 1% DMSO instead of compound.

SMILES	melting point [°C]	IC50 [1] [nM]
COc1cccc(COc2ccc(-c3nn(CCF)cc3-c3ccncc3)cc2)n1 (as salt: succinate) [Compound B24, 2-[[4-[1-(2-fluoroethyl)-4-(4-pyridinyl)-1H-pyrazol-3-yl]phenoxy]methyl]-6-methoxy-pyridine.succinate]	113.25	
CCOc1cccc(COc2ccc(-c3nn(CCF)cc3-c3ccncc3)cc2)n1 (as salt: succinate) [Compound B25, 2-ethoxy-6-[[4-[1-(2-fluoroethyl)-4-(4-pyridinyl)-1H-pyrazol-3-yl]phenoxy]methyl]-pyridine.succinate]	119.65	
Cc1cnc(COc2ccc(-c3nn(CCF)cc3-c3ccncc3)cc2)c(C)c1C (as salt: succinate) [Compound B28, 2-[[4-[1-(2-fluoroethyl)-4-(4-pyridinyl)-1H-pyrazol-3-yl]phenoxy]methyl]-3,4,5-trimethyl-pyridine.succinate]	197.08	
COc1ccc(COc2ccc(-c3nn(CCF)cc3-c3ccncc3)cc2)nc1 [Compound B4, 2-[[4-[1-(2-fluoroethyl)-4-(4-pyridinyl)-1H-pyrazol-3-yl]phenoxy]methyl]-5-methoxy-pyridine]	117.52	3.31
COc1ccc(COc2ccc(-c3nn(CC(F)(F)F)cc3-c3ccncc3)cc2)nc1 [Compound B5, 5-methoxy-2-[[4-[4-(4-pyridinyl)-1-(2,2,2-trifluoroethyl)-1H-pyrazol-3-yl]phenoxy]methyl]-pyridine]	136.3	5.13
COc1cccnc1COc1ccc(-c2nn(CC(F)(F)F)cc2-c2ccncc2)cc1 [Compound B9, 3-methoxy-2-[[4-[4-(4-pyridinyl)-1-(2,2,2-trifluoroethyl)-1H-pyrazol-3-yl]phenoxy]methyl]-pyridine]	147	5.13
COc1cccnc1COc1ccc(-c2nn(CCCF)cc2-c2ccncc2)cc1 [Compound B12, 2-[[4-[1-(3-fluoropropyl)-4-(4-pyridinyl)-1H-pyrazol-3-yl]phenoxy]methyl]-3-methoxy-pyridine]	165.9	13.2
FCCCn1cc(-c2ccncc2)c(-c2ccc(OCc3ccc(OCCF)cn3)cc2)n1 [Compound B15, 5-(2-fluoroethoxy)-2-[[4-[1-(3-fluoropropyl)-4-(4-pyridinyl)-1H-pyrazol-3-yl]phenoxy]methyl]-pyridine]	206.8	251
FCCOc1ccc(COc2ccc(-c3nn(CCF)cc3-c3ccncc3)cc2)nc1 [Compound B19, 5-(2-fluoroethoxy)-2-[[4-[1-(2-fluoroethyl)-4-(4-pyridinyl)-1H-pyrazol-3-yl]phenoxy]methyl]-pyridine]	212.7	100
FCCn1cc(-c2ccncc2)c(-c2ccc(OCc3ccc(Br)cn3)cc2)n1 [Compound B20, 5-bromo-2-[[4-[1-(2-fluoroethyl)-4-(4-pyridinyl)-1H-pyrazol-3-yl]phenoxy]methyl]-pyridine]	125.8	9.55
FCCn1cc(-c2ccncc2)c(-c2ccc(OCc3ccc(C(F)(F)F)cn3)cc2)n1 [Compound B22, 2-[[4-[1-(2-fluoroethyl)-4-(4-pyridinyl)-1H-pyrazol-3-yl]phenoxy]methyl]-5-(trifluoromethyl)-pyridine]	133.23	91.2
N#Cc1cccc(COc2ccc(-c3nn(CCF)cc3-c3ccncc3)cc2)n1 [Compound B26, 6-[[4-[1-(2-fluoroethyl)-4-(4-pyridinyl)-1H-pyrazol-3-yl]phenoxy]methyl]-2-pyridinecarbonitrile]	148.7	33.1
COc1ccc(Br)c(COc2ccc(-c3nn(CCF)cc3-c3ccncc3)cc2)n1 [Compound B27, 3-bromo-2-[[4-[1-(2-fluoroethyl)-4-(4-pyridinyl)-1H-pyrazol-3-yl]phenoxy]methyl]-6-methoxy-pyridine]	119.2	28.2
